Experimental data published in the NIST ThermoML archive (doi:10.1016/j.fluid.2015.01.002).

Assays:
[1] = refractive index (Na D-line) (dimensionless); settings: 298.15 K; 101.33 kPa; Liquid; Standard Abbe refractometry
[2] = 298.15 K; 101.33 kPa; Liquid; Vibrating tube method
[3] = refractive index (Na D-line) (dimensionless); xn = mol fraction of the nth substance listed; settings: 298.15 K, 101 kPa, Liquid, Standard Abbe refractometry
[4] = xn = mol fraction of the nth substance listed; settings: 298.15 K, 101 kPa, Liquid, Vibrating tube method

Cc1ccccc1 [toluene]
Settings | mass density [kg/m3] | refractive index
[1] | – | 1.49367
[2] | 862.34 | –

CCCCCCCCCCCCCCCC [hexadecane]
Settings | mass density [kg/m3] | refractive index
[1] | – | 1.43225
[2] | 770.3 | –

CC#N [acetonitrile] + c1ccccc1
Settings | mass density, [4] [kg/m3] | refractive index, [3]
x2 = 0.05 | 784.35 | 1.3523
x2 = 0.1 | 791.68 | 1.3638
x2 = 0.2 | 805.24 | 1.3823
x2 = 0.2998 | 817.45 | 1.402
x2 = 0.4001 | 828.54 | 1.4217
x2 = 0.4999 | 838.46 | 1.4378
x2 = 0.6002 | 847.41 | 1.4531
x2 = 0.7004 | 855.36 | 1.466
x2 = 0.7997 | 862.34 | 1.4789
x2 = 0.9002 | 868.48 | 1.4892
x2 = 0.9506 | 871.14 | 1.4929

Cc1ccc(C)cc1 [1,4-dimethylbenzene] + CC#N
Settings | mass density, [4] [kg/m3] | refractive index, [3]
x1 = 0.05 | 785.5 | 1.3575
x1 = 0.1 | 793.4 | 1.3717
x1 = 0.2 | 806.77 | 1.3975
x1 = 0.3 | 817.69 | 1.4181
x1 = 0.4 | 826.78 | 1.4353
x1 = 0.5 | 834.35 | 1.4498
x1 = 0.6 | 840.73 | 1.4642
x1 = 0.7 | 846.09 | 1.4757
x1 = 0.8001 | 850.43 | 1.4835
x1 = 0.9001 | 854.1 | 1.4889
x1 = 0.9503 | 855.52 | 1.4913

Cc1ccc(C)cc1 [1,4-dimethylbenzene]
Settings | mass density [kg/m3] | refractive index
[1] | – | 1.49281
[2] | 856.78 | –

c1ccccc1 [benzene]
Settings | mass density [kg/m3] | refractive index
[1] | – | 1.49749
[2] | 873.73 | –

CC#N [acetonitrile]
Settings | mass density [kg/m3] | refractive index
[1] | – | 1.34143
[2] | 776.64 | –

CC#N [acetonitrile] + Cc1ccccc1
Settings | mass density, [4] [kg/m3] | refractive index, [3]
x2 = 0.0499 | 784.94 | 1.3557
x2 = 0.1 | 792.57 | 1.3686
x2 = 0.2 | 806.07 | 1.3917
x2 = 0.3 | 817.61 | 1.412
x2 = 0.4 | 827.52 | 1.4308
x2 = 0.4999 | 835.99 | 1.4457
x2 = 0.6 | 843.26 | 1.458
x2 = 0.6999 | 849.43 | 1.4683
x2 = 0.8001 | 854.74 | 1.4785
x2 = 0.9 | 858.99 | 1.487
x2 = 0.9498 | 860.78 | 1.4907
